Legend:
Assay in all cases: relative viability (nuclei count vs DMSO), 5 days (fraction); higher = more cells survive
NCI-H1648 = tested on: NCI-H1648
Summary of the method: (§1)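 Dosing by pin tool came one day after lung cancer cell lines were seeded in 1536-well plates, using either one drug or a fixed anchor-drug dose plus five library-drug doses (not always all listed) in √10 steps. After 5 days, nuclei were counted on 4× images. Relative viability is treated-well nuclei count divided by vehicle-well nuclei count, and values are medians of duplicate plates.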

SW 900 = tested on: SW 900
Summary of the method: as §1

NCI-H522 = tested on: NCI-H522
Summary of the method: as §1

NCI-H2342 = tested on: NCI-H2342
Summary of the method: as §1

NCI-H1563 = tested on: NCI-H1563
Summary of the method: as §1

Calu-6 = tested on: Calu-6
Summary of the method: as §1

IA-LM = tested on: IA-LM
Summary of the method: as §1

NCI-H1703 = tested on: NCI-H1703
Summary of the method: as §1

EBC-1 = tested on: EBC-1
Summary of the method: as §1

NCI-H1299 = tested on: NCI-H1299
Summary of the method: as §1

A549 = tested on: A549
Summary of the method: as §1

O=c1[nH]c2ccccc2n1C1CCN(CCCC(c2ccc(F)cc2)c2ccc(F)cc2)CC1 [Pimozide] + CC(=O)c1c(C)c2cnc(Nc3ccc(N4CCNCC4)cn3)nc2n(C2CCCC2)c1=O [Palbociclib] (partner 0.5 µM)
relative viability (NCI-H1648; first compound 0.08 µM): 0.301
relative viability (NCI-H1648; first compound 0.8 µM): 0.233
relative viability (NCI-H1648; first compound 2.53 µM): 0.282
relative viability (NCI-H1648; first compound 8 µM): 0.31
relative viability (SW 900; first compound 0.08 µM): 0.526
relative viability (SW 900; first compound 0.253 µM): 0.572
relative viability (SW 900; first compound 2.53 µM): 0.511
relative viability (SW 900; first compound 8 µM): 0.443
relative viability (NCI-H522; first compound 0.08 µM): 0.766
relative viability (NCI-H522; first compound 0.253 µM): 0.785
relative viability (NCI-H522; first compound 0.8 µM): 0.94
relative viability (NCI-H522; first compound 2.53 µM): 0.891
relative viability (NCI-H522; first compound 8 µM): 0.901
relative viability (NCI-H2342; first compound 0.08 µM): 0.573
relative viability (NCI-H2342; first compound 0.253 µM): 0.526
relative viability (NCI-H2342; first compound 0.8 µM): 0.436
relative viability (NCI-H2342; first compound 2.53 µM): 0.484
relative viability (NCI-H2342; first compound 8 µM): 0.507

O=c1[nH]c2ccccc2n1C1CCN(CCCC(c2ccc(F)cc2)c2ccc(F)cc2)CC1 [Pimozide] + CC(=O)Nc1cccc(-n2c(=O)n(C3CC3)c(=O)c3c(Nc4ccc(I)cc4F)n(C)c(=O)c(C)c32)c1 [Trametinib] (partner 0.02 µM)
relative viability (NCI-H1648; first compound 0.08 µM): 0.423
relative viability (NCI-H1648; first compound 0.8 µM): 0.34
relative viability (NCI-H1648; first compound 2.53 µM): 0.373
relative viability (NCI-H1648; first compound 8 µM): 0.416
relative viability (SW 900; first compound 0.08 µM): 0.743
relative viability (SW 900; first compound 0.253 µM): 0.801
relative viability (SW 900; first compound 2.53 µM): 0.72
relative viability (SW 900; first compound 8 µM): 0.802
relative viability (NCI-H522; first compound 0.08 µM): 0.738
relative viability (NCI-H522; first compound 0.253 µM): 0.751
relative viability (NCI-H522; first compound 0.8 µM): 0.733
relative viability (NCI-H522; first compound 2.53 µM): 0.746
relative viability (NCI-H522; first compound 8 µM): 0.811
relative viability (NCI-H2342; first compound 0.08 µM): 0.661
relative viability (NCI-H2342; first compound 0.253 µM): 0.872
relative viability (NCI-H2342; first compound 0.8 µM): 0.676
relative viability (NCI-H2342; first compound 2.53 µM): 0.826
relative viability (NCI-H2342; first compound 8 µM): 0.759

Cc1cnc(-c2cnc(NCCNc3ccc(C#N)cn3)nc2-c2ccc(Cl)cc2Cl)[nH]1 + CC(=O)Nc1cccc(-n2c(=O)n(C3CC3)c(=O)c3c(Nc4ccc(I)cc4F)n(C)c(=O)c(C)c32)c1 [Trametinib] (partner 0.02 µM)
relative viability (NCI-H1648; first compound 0.08 µM): 0.5
relative viability (NCI-H1648; first compound 0.253 µM): 0.381
relative viability (NCI-H1648; first compound 0.8 µM): 0.476
relative viability (NCI-H1648; first compound 2.53 µM): 0.456
relative viability (SW 900; first compound 0.08 µM): 0.905
relative viability (SW 900; first compound 0.253 µM): 0.629
relative viability (SW 900; first compound 0.8 µM): 0.772
relative viability (SW 900; first compound 2.53 µM): 0.765
relative viability (NCI-H522; first compound 0.08 µM): 0.909
relative viability (NCI-H522; first compound 0.253 µM): 0.719
relative viability (NCI-H522; first compound 0.8 µM): 0.799
relative viability (NCI-H522; first compound 2.53 µM): 0.722
relative viability (NCI-H2342; first compound 0.08 µM): 0.923
relative viability (NCI-H2342; first compound 0.253 µM): 0.653
relative viability (NCI-H2342; first compound 0.8 µM): 0.801
relative viability (NCI-H2342; first compound 2.53 µM): 0.697

O=c1[nH]c2ccccc2n1C1CCN(CCCC(c2ccc(F)cc2)c2ccc(F)cc2)CC1 [Pimozide] + Nc1nc2[nH]cc(CCc3ccc(C(=O)N[C@@H](CCC(=O)O)C(=O)O)cc3)c2c(=O)[nH]1 [Pemetrexed] (partner 0.2 µM)
relative viability (NCI-H1648; first compound 0.08 µM): 0.818
relative viability (NCI-H1648; first compound 0.8 µM): 0.573
relative viability (NCI-H1648; first compound 2.53 µM): 0.673
relative viability (NCI-H1648; first compound 8 µM): 0.612
relative viability (SW 900; first compound 0.08 µM): 0.483
relative viability (SW 900; first compound 0.253 µM): 0.465
relative viability (SW 900; first compound 2.53 µM): 0.447
relative viability (SW 900; first compound 8 µM): 0.418
relative viability (NCI-H522; first compound 0.08 µM): 1.04
relative viability (NCI-H522; first compound 0.253 µM): 0.848
relative viability (NCI-H522; first compound 0.8 µM): 0.832
relative viability (NCI-H522; first compound 2.53 µM): 0.818
relative viability (NCI-H522; first compound 8 µM): 0.904
relative viability (NCI-H1563; first compound 0.08 µM): 0.606
relative viability (NCI-H1563; first compound 0.253 µM): 0.849
relative viability (NCI-H1563; first compound 0.8 µM): 0.745
relative viability (NCI-H1563; first compound 2.53 µM): 0.781
relative viability (NCI-H1563; first compound 8 µM): 0.734
relative viability (NCI-H2342; first compound 0.08 µM): 0.796
relative viability (NCI-H2342; first compound 0.253 µM): 0.757
relative viability (NCI-H2342; first compound 0.8 µM): 0.634
relative viability (NCI-H2342; first compound 2.53 µM): 0.749
relative viability (NCI-H2342; first compound 8 µM): 0.752

O=c1[nH]c2ccccc2n1C1CCN(CCCC(c2ccc(F)cc2)c2ccc(F)cc2)CC1 [Pimozide] + C[C@]1(O)C[C@@H](c2nc(-c3ccc4ccc(-c5ccccc5)nc4c3)c3c(N)nccn32)C1 [Linsitinib] (partner 1 µM)
relative viability (Calu-6; first compound 0.08 µM): 0.986
relative viability (Calu-6; first compound 0.253 µM): 0.94
relative viability (Calu-6; first compound 0.8 µM): 0.843
relative viability (Calu-6; first compound 2.53 µM): 0.881
relative viability (Calu-6; first compound 8 µM): 0.913
relative viability (IA-LM; first compound 0.08 µM): 0.652
relative viability (IA-LM; first compound 0.253 µM): 0.566
relative viability (IA-LM; first compound 0.8 µM): 0.356
relative viability (IA-LM; first compound 2.53 µM): 0.456
relative viability (IA-LM; first compound 8 µM): 0.759
relative viability (NCI-H1703; first compound 0.08 µM): 0.637
relative viability (NCI-H1703; first compound 0.253 µM): 0.544
relative viability (NCI-H1703; first compound 0.8 µM): 0.637
relative viability (NCI-H1703; first compound 2.53 µM): 0.514
relative viability (NCI-H1703; first compound 8 µM): 0.553
relative viability (EBC-1; first compound 0.08 µM): 0.867
relative viability (EBC-1; first compound 0.253 µM): 0.844
relative viability (EBC-1; first compound 0.8 µM): 0.766
relative viability (EBC-1; first compound 2.53 µM): 0.821
relative viability (EBC-1; first compound 8 µM): 0.892
relative viability (NCI-H1563; first compound 0.08 µM): 1.12
relative viability (NCI-H1563; first compound 0.253 µM): 1.19
relative viability (NCI-H1563; first compound 0.8 µM): 1.35
relative viability (NCI-H1563; first compound 2.53 µM): 1.16
relative viability (NCI-H1563; first compound 8 µM): 0.861
relative viability (NCI-H1299; first compound 0.08 µM): 0.949
relative viability (NCI-H1299; first compound 0.253 µM): 0.945
relative viability (NCI-H1299; first compound 0.8 µM): 0.923
relative viability (NCI-H1299; first compound 2.53 µM): 0.899
relative viability (NCI-H1299; first compound 8 µM): 0.949
relative viability (A549; first compound 0.08 µM): 0.426
relative viability (A549; first compound 0.253 µM): 0.497
relative viability (A549; first compound 0.8 µM): 0.627
relative viability (A549; first compound 2.53 µM): 0.548
relative viability (A549; first compound 8 µM): 0.619
